Data reported in PubChem BioAssay AID256 (DTP/NCI, 2004).
Values joined by “and” are separate entries in the source; they are usually repeats but may differ in a detail not shown here. Equal entries are not always repeated. Inconclusive results and toxic doses are left out.

Tested on: CD2F1 mice, L1210 leukemia ip, survival T/C
Assay: NCI In Vivo Anticancer Drug Screen. Data for tumor model L1210 Leukemia (intraperitoneal) in CD2F1 (CDF1) mice
Conditions: higher = longer survival
Method in brief: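 Compound-dosed mice with transplantable tumor versus matched vehicle controls; endpoint ratio T/C reported.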

[1] = endpoint: mean survival time, dose: 75.0 mg/kg/injection, schedule: Q01DX001 (ip), vehicle: saline
[2] = endpoint: mean survival time, dose: 150.0 mg/kg/injection, schedule: Q01DX001 (ip), vehicle: saline
[3] = endpoint: mean survival time, dose: 100.0 mg/kg/injection, schedule: Q04DX003 (ip), vehicle: saline with Tween-80
[4] = endpoint: mean survival time, dose: 200.0 mg/kg/injection, schedule: Q04DX003 (ip), vehicle: saline with Tween-80
[5] = endpoint: mean survival time, dose: 400.0 mg/kg/injection, schedule: Q04DX003 (ip), vehicle: saline with Tween-80
[6] = endpoint: mean survival time, dose: 100.0 mg/kg/injection, schedule: Q04DX003 (ip), vehicle: Klucel (hydroxypropylcellulose) (HPC)
[7] = endpoint: mean survival time, dose: 200.0 mg/kg/injection, schedule: Q04DX003 (ip), vehicle: Klucel (hydroxypropylcellulose) (HPC)
[8] = endpoint: mean survival time, dose: 400.0 mg/kg/injection, schedule: Q04DX003 (ip), vehicle: Klucel (hydroxypropylcellulose) (HPC)
[9] = endpoint: mean survival time, dose: 100.0 mg/kg/injection, schedule: Q01DX001 (ip), vehicle: saline with Tween-80
[10] = endpoint: mean survival time, dose: 200.0 mg/kg/injection, schedule: Q01DX001 (ip), vehicle: saline with Tween-80
[11] = endpoint: mean survival time, dose: 400.0 mg/kg/injection, schedule: Q01DX001 (ip), vehicle: saline with Tween-80
[12] = endpoint: mean survival time, dose: 50.0 mg/kg/injection, schedule: Q01DX009 (ip), vehicle: saline with Tween-80
[13] = endpoint: mean survival time, dose: 100.0 mg/kg/injection, schedule: Q01DX009 (ip), vehicle: saline with Tween-80
[14] = endpoint: mean survival time, dose: 200.0 mg/kg/injection, schedule: Q01DX009 (ip), vehicle: saline with Tween-80
[15] = endpoint: mean survival time, dose: 100.0 mg/kg/injection, schedule: Q01DX001 (ip), vehicle: saline
[16] = endpoint: mean survival time, dose: 200.0 mg/kg/injection, schedule: Q01DX001 (ip), vehicle: saline
[17] = endpoint: mean survival time, dose: 400.0 mg/kg/injection, schedule: Q01DX001 (ip), vehicle: saline

`Cc1ncc(C[P+](c2ccccc2)(c2ccccc2)c2ccccc2)c2c1OC(C)(C)OC2` was tested, and the T/C [1] was 103 % of control and the T/C [2] was 112 % of control.
With `COc1ccc(-c2nc3cc(Cl)ccc3c(=O)o2)cc1` the T/C [3] was 88 % of control, the T/C [4] was 91 % of control and the T/C [5] was 88 % of control.
For `C[S+](C)CC(=O)c1ccccc1O`, the T/C [3] was 103 % of control, the T/C [4] was 99 % of control and the T/C [5] was 100 % of control.
For `O=C1C2C3C=CC(C3)C2C(=NS(=O)(=O)c2ccccc2)C2C3C=CC(C3)C12` (stereo not given), the T/C [6] was 91 % of control, the T/C [7] was 93 % of control and the T/C [8] was 91 % of control.
For `O=C1OCC2CC=CCC12` (stereo not given), the T/C (endpoint: mean survival time, dose: 50.0 mg/kg/injection, schedule: Q01DX001 (ip), vehicle: carboxymethylcellulose (CMC)) was 92 % of control, the T/C (endpoint: mean survival time, dose: 100.0 mg/kg/injection, schedule: Q01DX001 (ip), vehicle: carboxymethylcellulose (CMC)) was 100 % of control and the T/C (endpoint: mean survival time, dose: 200.0 mg/kg/injection, schedule: Q01DX001 (ip), vehicle: carboxymethylcellulose (CMC)) was 92 % of control. For the same compound, the T/C (endpoint: mean survival time, dose: 400.0 mg/kg/injection, schedule: Q01DX001 (ip), vehicle: carboxymethylcellulose (CMC)) was 97 % of control.
`CC(=O)OC1(c2cc(C(F)(F)F)cc(C(F)(F)F)c2)C2CCC1CC2` (stereo not given) was tested, and the T/C (endpoint: mean survival time, dose: 12.5 mg/kg/injection, schedule: Q04DX002 (ip), vehicle: saline with Tween-80) was 101 % of control, the T/C (endpoint: mean survival time, dose: 25.0 mg/kg/injection, schedule: Q04DX002 (ip), vehicle: saline with Tween-80) was 97 % of control and the T/C (endpoint: mean survival time, dose: 50.0 mg/kg/injection, schedule: Q04DX002 (ip), vehicle: saline with Tween-80) was 97 % of control.
With `NC(=O)c1csc(C2OC(CO)CC2O)n1` (stereo not given) the T/C (endpoint: median survival time, dose: 37.5 mg/kg/injection, schedule: Q01DX005 (ip), vehicle: water) was 92 % of control, the T/C (endpoint: median survival time, dose: 75.0 mg/kg/injection, schedule: Q01DX005 (ip), vehicle: water) was 107 % of control and the T/C (endpoint: median survival time, dose: 125.0 mg/kg/injection, schedule: Q01DX005 (ip), vehicle: water) was 104 % of control. For the same compound, the T/C (endpoint: median survival time, dose: 150.0 mg/kg/injection, schedule: Q01DX005 (ip), vehicle: water) was 102 % of control, the T/C (endpoint: median survival time, dose: 250.0 mg/kg/injection, schedule: Q01DX005 (ip), vehicle: water) was 116 % of control and the T/C (endpoint: median survival time, dose: 300.0 mg/kg/injection, schedule: Q01DX005 (ip), vehicle: water) was 109 % of control. The T/C (endpoint: median survival time, dose: 500.0 mg/kg/injection, schedule: Q01DX005 (ip), vehicle: water) was 121 % of control.
In the case of `CC(=O)C1CN(C(C)(C)C)C1`, the T/C (endpoint: mean survival time, dose: 6.25 mg/kg/injection, schedule: Q01DX009 (ip), vehicle: saline) is reported as 93 % of control, the T/C (endpoint: mean survival time, dose: 6.25 mg/kg/injection, schedule: Q04DX003 (ip), vehicle: saline) is reported as 98 % of control and the T/C (endpoint: mean survival time, dose: 12.5 mg/kg/injection, schedule: Q01DX009 (ip), vehicle: saline) is reported as 98 % of control. For the same compound, the T/C (endpoint: mean survival time, dose: 12.5 mg/kg/injection, schedule: Q04DX003 (ip), vehicle: saline) was 96 % of control, the T/C (endpoint: mean survival time, dose: 25.0 mg/kg/injection, schedule: Q01DX009 (ip), vehicle: saline) was 98 % of control and the T/C (endpoint: mean survival time, dose: 25.0 mg/kg/injection, schedule: Q04DX003 (ip), vehicle: saline) was 95 % of control.
With `CCOc1cccc(Cc2cn(Cc3cccc(NC(=O)Nc4cccc(S(=O)(=O)F)c4)c3)c(=O)[nH]c2=O)c1` the T/C [9] was 95 % of control, the T/C [10] was 95 % of control and the T/C [11] was 94 % of control.
`OC1C2CCC1C(N1CCOCC1)CC2` (stereo not given) was tested, and the T/C [12] was 103 % of control, the T/C [13] was 109 % of control and the T/C [3] was 98 % of control. The T/C [14] was 97 % of control and the T/C [4] was 102 % of control.
In the case of `O=C1NC(=NC2CCCCC2)C2(CCN(CC3COc4ccccc4O3)CC2)N1c1ccccc1` (stereo not given), the T/C [9] is reported as 91 % of control, the T/C [10] is reported as 95 % of control and the T/C [11] is reported as 101 % of control.
In the case of `CCCCCCCCN(C)N=Nc1ccccc1`, the T/C (endpoint: mean survival time, dose: 79.0 mg/kg/injection, schedule: Q01DX009 (ip), vehicle: Klucel (hydroxypropylcellulose) (HPC)) is reported as 110 % of control, the T/C (endpoint: mean survival time, dose: 177.0 mg/kg/injection, schedule: Q01DX009 (ip), vehicle: Klucel (hydroxypropylcellulose) (HPC)) is reported as 124 % of control and the T/C (endpoint: mean survival time, dose: 266.0 mg/kg/injection, schedule: Q01DX009 (ip), vehicle: Klucel (hydroxypropylcellulose) (HPC)) is reported as 122 % of control.
For `C=CCOCC(O)C[As](=O)(O)c1ccc(Cl)cc1` (stereo not given), the T/C (endpoint: mean survival time, dose: 6.25 mg/kg/injection, schedule: Q04DX003 (ip), vehicle: saline with Tween-80) was 109 % of control and the T/C (endpoint: mean survival time, dose: 12.5 mg/kg/injection, schedule: Q04DX003 (ip), vehicle: saline with Tween-80) was 111 % of control.
With `O=c1cc[nH]c(=S)[nH]1.[Pd]` the T/C (endpoint: mean survival time, dose: 3.13 mg/kg/injection, schedule: Q04DX003 (ip), vehicle: distilled water + Tween-80) was 101 % of control, the T/C (endpoint: mean survival time, dose: 6.25 mg/kg/injection, schedule: Q04DX003 (ip), vehicle: distilled water + Tween-80) was 101 % of control and the T/C (endpoint: mean survival time, dose: 12.5 mg/kg/injection, schedule: Q04DX003 (ip), vehicle: distilled water + Tween-80) was 96 % of control. For the same compound, the T/C (endpoint: mean survival time, dose: 25.0 mg/kg/injection, schedule: Q04DX003 (ip), vehicle: distilled water + Tween-80) was 98 % of control, the T/C (endpoint: mean survival time, dose: 50.0 mg/kg/injection, schedule: Q04DX003 (ip), vehicle: distilled water + Tween-80) was 95 % of control and the T/C (endpoint: mean survival time, dose: 100.0 mg/kg/injection, schedule: Q04DX003 (ip), vehicle: distilled water + Tween-80) was 90 % of control. For the same compound, the T/C (endpoint: mean survival time, dose: 200.0 mg/kg/injection, schedule: Q04DX003 (ip), vehicle: distilled water + Tween-80) was 90 % of control.
For `CC(C)(C)C(=O)/C=C/c1ccccc1`, the T/C (endpoint: mean survival time, dose: 50.0 mg/kg/injection, schedule: Q04DX003 (ip), vehicle: Klucel (hydroxypropylcellulose) (HPC)) was 96 % of control, the T/C [6] was 98 % of control and 102 % of control and the T/C [7] was 98 % of control and 110 % of control. For the same compound, the T/C [8] was 106 % of control.
In the case of `CC(=O)OCC1OC([n+]2c([O-])cc(=O)n3ccsc32)C(OC(C)=O)C1OC(C)=O` (stereo not given), the T/C (endpoint: median survival time, dose: 11.25 mg/kg/injection, schedule: Q01DX005 (ip), vehicle: water) is reported as 101 % of control, the T/C (endpoint: median survival time, dose: 12.5 mg/kg/injection, schedule: Q01DX005 (ip), vehicle: distilled water + Tween-80) is reported as 103 % of control and the T/C (endpoint: median survival time, dose: 22.5 mg/kg/injection, schedule: Q01DX005 (ip), vehicle: water) is reported as 100 % of control. For the same compound, the T/C (endpoint: median survival time, dose: 25.0 mg/kg/injection, schedule: Q01DX005 (ip), vehicle: distilled water + Tween-80) was 98 % of control, the T/C (endpoint: median survival time, dose: 45.0 mg/kg/injection, schedule: Q01DX005 (ip), vehicle: water) was 108 % of control and the T/C (endpoint: median survival time, dose: 50.0 mg/kg/injection, schedule: Q01DX005 (ip), vehicle: distilled water + Tween-80) was 98 % of control. For the same compound, the T/C (endpoint: median survival time, dose: 90.0 mg/kg/injection, schedule: Q01DX005 (ip), vehicle: water) was 114 % of control, the T/C (endpoint: median survival time, dose: 100.0 mg/kg/injection, schedule: Q01DX005 (ip), vehicle: distilled water + Tween-80) was 102 % of control and the T/C (endpoint: median survival time, dose: 180.0 mg/kg/injection, schedule: Q01DX005 (ip), vehicle: water) was 101 % of control. For the same compound, the T/C (endpoint: median survival time, dose: 200.0 mg/kg/injection, schedule: Q01DX005 (ip), vehicle: distilled water + Tween-80) was 95 % of control.
With `O=C(O)CCSCCC(=O)O` the T/C [15] was 100 % of control, the T/C [16] was 105 % of control and the T/C [17] was 101 % of control.
In the case of `Nc1cc2c3c(cccc3c1)C(=O)N(CCN1CCCC1)C2=O`, the T/C (endpoint: mean survival time, dose: 3.12 mg/kg/injection, schedule: Q01DX009 (ip), vehicle: saline with Tween-80) is reported as 96 % of control and 102 % of control, the T/C (endpoint: mean survival time, dose: 6.25 mg/kg/injection, schedule: Q01DX009 (ip), vehicle: saline with Tween-80) is reported as 101 % of control and 107 % of control and the T/C (endpoint: mean survival time, dose: 12.5 mg/kg/injection, schedule: Q01DX009 (ip), vehicle: saline with Tween-80) is reported as 117 % of control and 110 % of control. For the same compound, the T/C (endpoint: mean survival time, dose: 25.0 mg/kg/injection, schedule: Q01DX009 (ip), vehicle: saline with Tween-80) was 113 % of control and 119 % of control and 111 % of control, the T/C [12] was 175 % of control and the T/C [13] was 86 % of control. The T/C [14] was 91 % of control.
For `CC(C)(C)C1=CC(=O)C(C(C)(C)C)=C(N=[N+]=[N-])C1=O`, the T/C [9] was 101 % of control, the T/C [10] was 97 % of control and the T/C [11] was 97 % of control.
With `N#CC12CCCC(=O)N1C=Cc1ccccc12` (stereo not given) the T/C [15] was 107 % of control, the T/C [16] was 100 % of control and the T/C [17] was 97 % of control.
In the case of `O=NN1CCCCCC1=O`, the T/C [1] is reported as 108 % of control, the T/C [2] is reported as 110 % of control and the T/C (endpoint: mean survival time, dose: 300.0 mg/kg/injection, schedule: Q01DX001 (ip), vehicle: saline) is reported as 120 % of control.
In the case of `c1ccc(CSC2=NCCS2)cc1`, the T/C [3] is reported as 108 % of control, the T/C [4] is reported as 98 % of control and the T/C [5] is reported as 97 % of control.
